Reference: PubChem BioAssay AID256 (DTP/NCI, 2004)
Where “and” joins values, the source holds several entries; their conditions need not be identical. Identical values can stand only once. Inconclusive results and toxic doses are left out. The calls were made as follows: active = survival T/C of 150% or more; inactive = T/C below 125% in these data.

Test system: CD2F1 mice, L1210 leukemia ip, survival T/C
Test: NCI In Vivo Anticancer Drug Screen. Data for tumor model L1210 Leukemia (intraperitoneal) in CD2F1 (CDF1) mice
Conditions: higher = longer survival
Procedure, shortened: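 Implant tumor; dose compound or vehicle; measure endpoint in both groups; report treated divided by control.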

[1] = endpoint: mean survival time, dose: 50.0 mg/kg/injection, schedule: Q01DX009 (ip), vehicle: saline with Tween-80
[2] = endpoint: mean survival time, dose: 100.0 mg/kg/injection, schedule: Q01DX009 (ip), vehicle: saline with Tween-80
[3] = endpoint: mean survival time, dose: 25.0 mg/kg/injection, schedule: Q01DX009 (ip), vehicle: saline with Tween-80
[4] = endpoint: mean survival time, dose: 25.0 mg/kg/injection, schedule: Q01DX001 (ip), vehicle: saline with Tween-80
[5] = endpoint: mean survival time, dose: 100.0 mg/kg/injection, schedule: Q01DX001 (ip), vehicle: saline with Tween-80
[6] = endpoint: mean survival time, dose: 50.0 mg/kg/injection, schedule: Q04DX002 (ip), vehicle: saline with Tween-80
[7] = endpoint: mean survival time, dose: 200.0 mg/kg/injection, schedule: Q01DX001 (ip), vehicle: saline with Tween-80
[8] = endpoint: mean survival time, dose: 400.0 mg/kg/injection, schedule: Q01DX001 (ip), vehicle: saline with Tween-80
[9] = endpoint: mean survival time, dose: 400.0 mg/kg/injection, schedule: Q04DX003 (ip), vehicle: saline with Tween-80
[10] = endpoint: mean survival time, dose: 200.0 mg/kg/injection, schedule: Q01DX001 (ip), vehicle: saline
[11] = endpoint: mean survival time, dose: 50.0 mg/kg/injection, schedule: Q04DX003 (ip), vehicle: saline with Tween-80
[12] = endpoint: mean survival time, dose: 100.0 mg/kg/injection, schedule: Q04DX003 (ip), vehicle: saline with Tween-80
[13] = endpoint: mean survival time, dose: 200.0 mg/kg/injection, schedule: Q04DX003 (ip), vehicle: saline with Tween-80
[14] = endpoint: mean survival time, dose: 100.0 mg/kg/injection, schedule: Q01DX009 (ip), vehicle: saline
[15] = endpoint: mean survival time, dose: 200.0 mg/kg/injection, schedule: Q01DX009 (ip), vehicle: saline with Tween-80
[16] = endpoint: mean survival time, dose: 200.0 mg/kg/injection, schedule: Q01DX009 (ip), vehicle: saline
[17] = endpoint: mean survival time, dose: 400.0 mg/kg/injection, schedule: Q01DX009 (ip), vehicle: saline with Tween-80
[18] = endpoint: mean survival time, dose: 400.0 mg/kg/injection, schedule: Q01DX009 (ip), vehicle: saline
[19] = endpoint: mean survival time, dose: 100.0 mg/kg/injection, schedule: Q01DX001 (ip), vehicle: saline
[20] = endpoint: mean survival time, dose: 400.0 mg/kg/injection, schedule: Q01DX001 (ip), vehicle: saline
[21] = endpoint: mean survival time, dose: 100.0 mg/kg/injection, schedule: Q04DX002 (ip), vehicle: saline with Tween-80
[22] = endpoint: mean survival time, dose: 200.0 mg/kg/injection, schedule: Q04DX002 (ip), vehicle: saline with Tween-80

Measured: T/C

OCC1(CO)CCCC(CO)(CO)C1O
inactive: endpoint: mean survival time, dose: 100.0 mg/kg/injection, schedule: Q04DX002 (ip), vehicle: saline 94 % of control | endpoint: mean survival time, dose: 200.0 mg/kg/injection, schedule: Q04DX002 (ip), vehicle: saline 94 % of control | endpoint: mean survival time, dose: 400.0 mg/kg/injection, schedule: Q04DX002 (ip), vehicle: saline 94 % of control

O=C1C=C(NNc2ccccc2)CCC1
inactive: [1] 104 % of control | [2] 100 % of control

[Cl][Sn]([c]1ccccc1)[c]1ccccc1
inactive: endpoint: mean survival time, dose: 6.25 mg/kg/injection, schedule: Q01DX009 (ip), vehicle: saline 97 % of control | endpoint: mean survival time, dose: 12.5 mg/kg/injection, schedule: Q01DX009 (ip), vehicle: saline with Tween-80 96 % of control | [3] 106 % of control | endpoint: mean survival time, dose: 25.0 mg/kg/injection, schedule: Q01DX009 (ip), vehicle: saline 106 % of control | endpoint: mean survival time, dose: 50.0 mg/kg/injection, schedule: Q01DX009 (ip), vehicle: saline 94 % of control

CC1(C)N=C(N)N=C(N)N1c1ccc(OCCCCNC(=O)Nc2cccc(S(=O)(=O)F)c2)c(Cl)c1
inactive: [4] 105 % of control | endpoint: mean survival time, dose: 50.0 mg/kg/injection, schedule: Q01DX001 (ip), vehicle: saline with Tween-80 103 % of control | [5] 95 % of control and 97 % of control

CN(C)CCCN=Cc1cc([N+](=O)[O-])ccc1O.CN(C)CCCN=Cc1cc([N+](=O)[O-])ccc1O.[Ni+2]
inactive: endpoint: mean survival time, dose: 6.25 mg/kg/injection, schedule: Q04DX002 (ip), vehicle: saline with Tween-80 91 % of control | endpoint: mean survival time, dose: 12.5 mg/kg/injection, schedule: Q04DX002 (ip), vehicle: saline with Tween-80 91 % of control | [6] 93 % of control

O=C(Nc1cccc2ccccc12)c1ccccc1
inactive: [5] 95 % of control | [7] 95 % of control | [8] 92 % of control

Cn1nc2ccccc2n1
inactive: endpoint: mean survival time, dose: 118.0 mg/kg/injection, schedule: Q04DX003 (ip), vehicle: saline with Tween-80 104 % of control | endpoint: mean survival time, dose: 178.0 mg/kg/injection, schedule: Q04DX003 (ip), vehicle: saline with Tween-80 98 % of control | endpoint: mean survival time, dose: 266.0 mg/kg/injection, schedule: Q04DX003 (ip), vehicle: saline with Tween-80 109 % of control | [9] 96 % of control

CC(=O)O.[La]
inactive: [10] 94 % of control

O=[N+]([O-])c1ccc2nc3ccscc-3c2c1
inactive: endpoint: mean survival time, dose: 100.0 mg/kg/injection, schedule: Q01DX001 (ip), vehicle: acetone 100 % of control | endpoint: mean survival time, dose: 200.0 mg/kg/injection, schedule: Q01DX001 (ip), vehicle: acetone 100 % of control | endpoint: mean survival time, dose: 400.0 mg/kg/injection, schedule: Q01DX001 (ip), vehicle: acetone 92 % of control

CN(C)C(=O)c1cc2ccccc2n1C
inactive: [5] 97 % of control | [7] 98 % of control | [8] 94 % of control

CSc1ccc(C(c2ccc(SC)cc2)C(Cl)(Cl)Cl)cc1
inactive: [11] 91 % of control | [12] 89 % of control

N=c1c2ncn(C3CCCC3)c2ncn1OCc1ccccc1
inactive: endpoint: mean survival time, dose: 100.0 mg/kg/injection, schedule: Q01DX001 (ip), vehicle: other 98 % of control

Cn1ccn(C2CCCCC2)c1=O
inactive: [3] 98 % of control | endpoint: mean survival time, dose: 25.0 mg/kg/injection, schedule: Q04DX003 (ip), vehicle: saline with Tween-80 96 % of control | [1] 101 % of control | [11] 100 % of control | [2] 95 % of control | [12] 91 % of control and 93 % of control

CC[C@@]1(O)C[C@H](OC2CC(N(C)C)C(OC3CC(O)C(O[C@@H]4O[C@@H](C)C(=O)C=C4N)C(C)O3)C(C)O2)c2c(cc3c(c2O)C(=O)c2c(O)ccc(O)c2C3=O)[C@H]1C(=O)OC (stereo not given in full)
inactive: endpoint: mean survival time, dose: 0.02 mg/kg/injection, schedule: Q01DX009 (ip), vehicle: suspension in saline 102 % of control | endpoint: mean survival time, dose: 0.05 mg/kg/injection, schedule: Q01DX009 (ip), vehicle: suspension in saline 96 % of control | endpoint: mean survival time, dose: 0.1 mg/kg/injection, schedule: Q01DX009 (ip), vehicle: suspension in saline 103 % of control | endpoint: mean survival time, dose: 0.2 mg/kg/injection, schedule: Q01DX009 (ip), vehicle: suspension in saline 115 % of control | endpoint: mean survival time, dose: 0.4 mg/kg/injection, schedule: Q01DX009 (ip), vehicle: suspension in saline 108 % of control | endpoint: mean survival time, dose: 0.8 mg/kg/injection, schedule: Q01DX009 (ip), vehicle: suspension in saline 123 % of control | endpoint: mean survival time, dose: 1.6 mg/kg/injection, schedule: Q01DX009 (ip), vehicle: suspension in saline 111 % of control

Clc1ccc(/C(=C(\Br)c2ccccc2)c2ccccc2)cc1
inactive: [12] 102 % of control and 100 % of control | [13] 100 % of control and 102 % of control | [9] 96 % of control and 94 % of control

O=C(/C(=N/N=C\c1ccc([N+](=O)[O-])cc1)c1ccccc1)c1ccccc1
inactive: [2] 101 % of control | [14] 109 % of control | [15] 95 % of control | [16] 109 % of control | [17] 95 % of control | [18] 104 % of control

CCCc1cc(OC)ccc1O
inactive: [2] 96 % of control | [12] 96 % of control | [15] 100 % of control | [13] 94 % of control | [17] 100 % of control | [9] 103 % of control

O=C(Nc1ccccc1)Oc1ccc2ccccc2c1
inactive: [19] 96 % of control | [10] 94 % of control | [20] 97 % of control

COc1cc(C=C(c2ccc(N(C)C)cc2)c2ccc(N(C)C)cc2)c(OC)c2ccccc12
inactive: [5] 102 % of control | [21] 90 % of control | [7] 101 % of control | [22] 87 % of control | [8] 90 % of control

N#CCCN1CCOCC1
inactive: [14] 95 % of control | endpoint: mean survival time, dose: 100.0 mg/kg/injection, schedule: Q04DX003 (ip), vehicle: saline 92 % of control | [16] 93 % of control | endpoint: mean survival time, dose: 200.0 mg/kg/injection, schedule: Q04DX003 (ip), vehicle: saline 103 % of control | [18] 101 % of control | endpoint: mean survival time, dose: 400.0 mg/kg/injection, schedule: Q04DX003 (ip), vehicle: saline 103 % of control

O=[N+]([O-])c1ccc2c(c1)S(=O)c1cc([N+](=O)[O-])c(Br)cc1-2 (stereo not given) (tested in a mixture with another compound)
inactive: [6] 108 % of control | [21] 108 % of control | [22] 102 % of control

Cc1cccc(-c2nn[nH]n2)n1
inactive: endpoint: mean survival time, dose: 12.5 mg/kg/injection, schedule: Q01DX001 (ip), vehicle: saline with Tween-80 98 % of control | [4] 90 % of control | [19] 103 % of control | [10] 113 % of control | [20] 101 % of control

COc1ccc(OC)c(-c2cn(C3CC(O)C(CO)O3)c(=O)[nH]c2=O)c1 (stereo not given)
inactive: endpoint: median survival time, dose: 12.5 mg/kg/injection, schedule: Q01DX005 (ip), vehicle: water 100 % of control | endpoint: median survival time, dose: 25.0 mg/kg/injection, schedule: Q01DX005 (ip), vehicle: water 102 % of control | endpoint: median survival time, dose: 50.0 mg/kg/injection, schedule: Q01DX005 (ip), vehicle: water 97 % of control | endpoint: median survival time, dose: 100.0 mg/kg/injection, schedule: Q01DX005 (ip), vehicle: water 102 % of control | endpoint: median survival time, dose: 200.0 mg/kg/injection, schedule: Q01DX005 (ip), vehicle: water 98 % of control

N#Cc1c(F)c(F)c(Oc2c(F)c(F)c(F)c(F)c2F)c(F)c1Oc1c(F)c(F)c(F)c(F)c1F
inactive: [12] 96 % of control | [13] 93 % of control | [9] 88 % of control

CC(C)CC(NC(=O)C(O)C(N)Cc1ccccc1)C(=O)O (stereo not given)
inactive: endpoint: mean survival time, dose: 10.0 micrograms/kg/injection, schedule: Q01DX005 (oral), vehicle: saline 96 % of control | endpoint: mean survival time, dose: 100.0 micrograms/kg/injection, schedule: Q01DX005 (oral), vehicle: saline 100 % of control | endpoint: median survival time, dose: 10.0 micrograms/mouse/injection, schedule: Q01DX010 (oral), vehicle: saline 97 % of control | endpoint: median survival time, dose: 100.0 micrograms/mouse/injection, schedule: Q01DX010 (oral), vehicle: saline 95 % of control
